In ChEMBL document CHEMBL1201862, “PubChem BioAssay data set” (2004):
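Protocol summary: plate cells (96-well), add compound at 5 concentrations, incubate 48 h, interpolate endpoints linearly. GI50: concentration for 50% inhibition of growth.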 Active and inactive are the calls of the source. Cut-off read from the data, not from the text of the source: active = GI50 up to about 1.1 µM and inactive = higher.

Key:
Assay in all cases: NCI tumour cell line growth inhibition, 48 h
786-0 = test system: 786-0
A498 = test system: A498
A549 = test system: A549
ACHN = test system: ACHN
CAKI-1 = test system: CAKI-1
CCRF-CEM = test system: CCRF-CEM
COLO 205 = test system: COLO 205
DLD-1 = test system: DLD-1
DMS-114 = test system: DMS-114
DMS-273 = test system: DMS-273
EKVX = test system: EKVX
HCC 2998 = test system: HCC 2998
HCT-116 = test system: HCT-116
HCT-15 = test system: HCT-15
HL-60 = test system: HL-60
HOP-18 = test system: HOP-18
HOP-62 = test system: HOP-62
HOP-92 = test system: HOP-92
HT-29 = test system: HT-29
IGROV-1 = test system: IGROV-1
K562 = test system: K562
KM-20L2 = test system: KM-20L2
KM12 = test system: KM12
LXFL 529 = test system: LXFL 529
M14 = test system: M14
M19-MEL = test system: M19-MEL
MOLT-4 = test system: MOLT-4
Malme-3M = test system: Malme-3M
NCI-H226 = test system: NCI-H226
NCI-H23 = test system: NCI-H23
NCI-H460 = test system: NCI-H460
NCI-H522 = test system: NCI-H522
OVCAR-3 = test system: OVCAR-3
OVCAR-4 = test system: OVCAR-4
OVCAR-5 = test system: OVCAR-5
OVCAR-8 = test system: OVCAR-8
RPMI-8226 = test system: RPMI-8226
RXF 631 = test system: RXF 631
SF-268 = test system: SF-268
SF-295 = test system: SF-295
SF-539 = test system: SF-539
SK-MEL-28 = test system: SK-MEL-28
SK-MEL-2 = test system: SK-MEL-2
SK-MEL-5 = test system: SK-MEL-5
SN12C = test system: SN12C
SNB-19 = test system: SNB-19
SNB-75 = test system: SNB-75
SNB-78 = test system: SNB-78
SR = test system: SR
SW-620 = test system: SW-620
TK-10 = test system: TK-10
U-251 = test system: U-251
UACC-257 = test system: UACC-257
UACC-62 = test system: UACC-62
UO-31 = test system: UO-31

In the case of `Cc1ccccc1C(C#N)/C(=N/NC(=O)C(=O)NN)C(=O)Nc1cccc(C(F)(F)F)c1` (stereo not given), the GI50 (786-0) is reported as > 100 µM (inactive), the GI50 (A498) is reported as > 100 µM (inactive) and the GI50 (A549) is reported as > 100 µM (inactive). For the same compound, the GI50 (ACHN) was > 100 µM (inactive), the GI50 (CAKI-1) was > 100 µM (inactive) and the GI50 (CCRF-CEM) was > 100 µM (inactive). The GI50 (COLO 205) was > 100 µM (inactive), the GI50 (DLD-1) was > 100 µM (inactive) and the GI50 (DMS-114) was > 100 µM (inactive). For the same compound, the GI50 (DMS-273) was > 100 µM (inactive), the GI50 (EKVX) was > 100 µM (inactive) and the GI50 (HCC 2998) was > 100 µM (inactive). The GI50 (HCT-116) was > 100 µM (inactive), the GI50 (HCT-15) was over 100 µM and the GI50 (HL-60) was > 100 µM (inactive). The GI50 (HOP-18) was > 100 µM (inactive), the GI50 (HOP-62) was > 100 µM (inactive) and the GI50 (HOP-92) was > 100 µM (inactive). The GI50 (HT-29) was > 100 µM (inactive), the GI50 (IGROV-1) was > 100 µM (inactive) and the GI50 (K562) was > 100 µM (inactive). The GI50 (KM-20L2) was > 100 µM (inactive), the GI50 (KM12) was > 100 µM (inactive) and the GI50 (LXFL 529) was > 100 µM (inactive). The GI50 (M14) was > 100 µM (inactive), the GI50 (M19-MEL) was > 100 µM (inactive) and the GI50 (MOLT-4) was > 100 µM (inactive). The GI50 (Malme-3M) was > 100 µM (inactive), the GI50 (NCI-H226) was > 100 µM (inactive) and the GI50 (NCI-H23) was > 100 µM (inactive). The GI50 (NCI-H460) was > 100 µM (inactive), the GI50 (NCI-H522) was > 100 µM (inactive) and the GI50 (OVCAR-3) was > 100 µM (inactive). For the same compound, the GI50 (OVCAR-4) was > 100 µM (inactive), the GI50 (OVCAR-5) was > 100 µM (inactive) and the GI50 (OVCAR-8) was > 100 µM (inactive). The GI50 (RPMI-8226) was > 100 µM (inactive), the GI50 (RXF 631) was > 100 µM (inactive) and the GI50 (SF-268) was > 100 µM (inactive). For the same compound, the GI50 (SF-295) was > 100 µM (inactive), the GI50 (SF-539) was > 100 µM (inactive) and the GI50 (SK-MEL-28) was > 100 µM (inactive). The GI50 (SK-MEL-2) was > 100 µM (inactive), the GI50 (SK-MEL-5) was > 100 µM (inactive) and the GI50 (SN12C) was > 100 µM (inactive). For the same compound, the GI50 (SNB-19) was > 100 µM (inactive), the GI50 (SNB-75) was 49.8 µM (inactive) and the GI50 (SNB-78) was > 100 µM (inactive). The GI50 (SR) was > 100 µM (inactive), the GI50 (SW-620) was > 100 µM (inactive) and the GI50 (TK-10) was > 100 µM (inactive). For the same compound, the GI50 (U-251) was > 100 µM (inactive), the GI50 (UACC-257) was > 100 µM (inactive) and the GI50 (UACC-62) was > 100 µM (inactive). For the same compound, the GI50 (UO-31) was > 100 µM (inactive).
